Source: patent US11524962B2, “Substituted pyrrolo[2,3-d]pyrimidines as inhibitors of protein arginine methyl transferase 5 (PRMT5)” (PRELUDE THERAPEUTICS, INCORPORATED, priority 2017, dated 2022)
Like-named read-outs stand apart in the source and are kept apart here.

Key:
[1] = In vivo pharmacokinetic study in rat; settings: for clearance / half-life / Vd / bioavailability: Sprague-Dawley (SD), blood; for clearance / half-life / Vd: iv; for Vd: read-out: Vss; for bioavailability: po
Method: In a rat (SD, male, non-fasted) non-crossover cassette (n=2) PK study, Example 1 was dosed at 0.5 mg/kg (DMA: […]=5:95, solution) with another compound via i.v. administration (N=3) and 2 mg/kg (0.5% o Na CMC+0.50% Tween80, suspension) with another compound via oral gauge (p.o.) (N=3).
In a rat (SD, male and female, non-fasted) non-crossover cassette (n=4) PK study, Example 6 was dosed at 0.2 mg/kg (DMA: […]=5:95, solution) with other 3 compounds via i.v. administration (N=2 per sex) and 2 mg/kg (0.5% o Na CMC+0.50% Tween80, suspension) with other 3 compounds via oral gauge (p.o.) (N=2 per sex).
In a rat (SD, male and female, non-fasted) non-crossover PK study, Example 11 was dosed at 1 mg/kg (DMA: 20% HPBCD=5:95, solution) via i.v. administration (N=3 per sex) and 3 mg/kg (0.5% Na CMC+0.5% Tween80, suspension) via oral gauge (p.o.) (N=3 per sex).

[2] = In vivo brain exposure study in mouse; settings: po, mouse CD-1 male, 10 mg/kg p.o.
Method: In a mouse (CD-1, male) brain exposure cassette study, Examples 2 and 6 were dosed together at 10 mg/kg each (0.5% Na CMC+0.5% Tween80, solution) via oral gauge (p.o.). At 3 time points (N=3), 2h, 4h and 8h, plasma and brain samples were analyzed for average drug concentrations.
In a mouse (CD-1, male) brain exposure study, Examples 11 was dosed at 10 mg/kg each (0.5% Na CMC+0.5% Tween80, solution) via oral gauge (p.o.). At 3 time points (N=3), 1 h, 2h and 4h, plasma and brain samples were analyzed for average drug concentrations.

U-87 MG cells = assay: Cell proliferation assay in U-87 MG cells; format: cell-based; settings: Homo sapiens, 240 h, day 10, read-out: Prolif_U87 IC50
Method: One day before experiment, Granta-519 cells were passaged to a density of 0.5×10^6 cells/ml. U-87 MG cells were trypsinized and 2,000 cells were seeded into 96-well plates and allow to grow overnight. On the day of experiment (day 0), Granta-519 Cells were spun down at 1,500 rpm for 4 min, resuspended in fresh medium to 0.5×10^6 cells/ml and 190 ul of cells were added to 96 well plates. For U-87 MG cells, old medium was removed and replaced with 190 uL fresh medium. Compound working stocks were first diluted at 1:50 with fresh medium in 96 well plate and 10 μL of diluted drugs were added to 96 well plates containing cells and incubated for 3 days. DMSO was used a vehicle control.
One day 3, 50 uL of Granta-519 cells were transferred to a new 96-well plate and 140 uL fresh medium was added. For U-87 MG cells, old medium was removed and replaced with 190 uL fresh medium. Compound working stocks were freshly diluted at 1:50 with medium and 10 μL of diluted drugs were added to cells and grow for 3 additional days. The same process was repeated on day 6. Cells were allowed to grow for additional 4 days.
On day 10, 100 uL Granta-519 cells were transferred to a new 96 well plate and 10 μL of Cell Counting Kit-8 (CCK-8, Jojindo, CK04-13) solution was added. For U-87 MG cells, old medium was removed and replaced with 100 uL fresh medium and 10 uL CCK-8 solution was added. Plates were incubated in CO2 incubator for 2 hours (Granta-519 cells) or 30 min (U-87 MG cells) and OD450 values were measured with a microplate reader (iMark microplate reader, Bio-Rad). Percentage of viable cells, relative to DMSO vehicle control, were calculated and plotted in Graphpad Prism ([Inhibitor]vs. normalized response−Variable slope) to determine proliferation IC50 values on day 10.
These cell proliferation procedures produced the data in Table 7.

[3] = rat SD male, i.v. 0.5 mg/kg, cassette
[4] = cassette, brain, read-out: Brain-2 h
[5] = cassette, brain, read-out: Brain-4 h
[6] = cassette, brain, read-out: Brain-8 h
[7] = cassette, plasma, read-out: Plasma-2 h
[8] = cassette, plasma, read-out: Plasma-4 h
[9] = cassette, plasma, read-out: Plasma-8 h
[10] = rat SD female, i.v. 0.2 mg/kg, cassette
[11] = rat SD male, i.v. 0.2 mg/kg, cassette
[12] = rat SD female, p.o. 2 mg/kg, cassette (n=4)
[13] = rat SD male, p.o. 2 mg/kg, cassette (n=4)

Structure (SMILES): C[C@@](O)(c1ccc2c(c1)CC2)[C@H]1O[C@@H](n2ccc3c(N)ncnc32)[C@H](O)[C@@H]1O [Example 1, (2R,3R,4S,5S)-2-(4-amino-7H-pyrrolo[2,3-d]pyrimidin-7-yl)-5-((R)-1-(bicyclo[4.2.0]octa-1(6),2,4-trien-3-yl)-1-hydroxyethyl)tetrahydrofuran-3,4-diol]
- clearance [1, 3]: 56.2 mL/min/kg
- half-life [1, 3]: 0.35 h
- Vd [1, 3]: 1.36 L/kg
- dose normalized AUC ([1]; rat SD male, p.o. 2 mg/kg, cassette): 145 ng·kg·h/mL/mg

Structure (SMILES): Nc1ncnc2c1ccn2[C@@H]1O[C@H]([C@H](O)c2ccc3c(c2)CC3)[C@@H](O)[C@H]1O [Example 2, (2R,3R,4S,5R)-2-(4-amino-7H-pyrrolo[2,3-d]pyrimidin-7-yl)-5-((R)-bicyclo[4.2.0]octa-1(6),2,4-trien-3-yl(hydroxy)methyl)tetrahydrofuran-3,4-diol]
- concentration at 2 h [2, 4]: 244 ng/g
- concentration at 4 h [2, 5]: 174 ng/g
- concentration at 8 h [2, 6]: 76.2 ng/g
- concentration at 2 h [2, 7]: 1610 ng/mL
- concentration at 4 h [2, 8]: 802 ng/mL
- concentration at 8 h [2, 9]: 178 ng/mL

Structure (SMILES): Nc1ncnc2c1c(F)cn2[C@@H]1O[C@H]([C@H](O)c2ccc3c(c2)CC3)[C@@H](O)[C@H]1O [Example 6, (2R,3R,4S,5R)-2-(4-amino-5-fluoro-7H-pyrrolo[2,3-d]pyrimidin-7-yl)-5-((R)-bicyclo[4.2.0]octa-1(6),2,4-trien-3-yl(hydroxy)methyl)tetrahydrofuran-3,4-diol]
- IC50 (U-87 MG cells): 115 nM
- clearance [1, 10]: 21.6 mL/min/kg
- half-life [1, 10]: 1.69 h
- Vd [1, 10]: 1.91 L/kg
- clearance [1, 11]: 59.2 mL/min/kg
- half-life [1, 11]: 0.46 h
- Vd [1, 11]: 1.81 L/kg
- bioavailability [1, 12]: > 100%
- bioavailability [1, 13]: 51.1%
- dose normalized AUC [1, 12]: 1143 ng·kg·h/mL/mg
- dose normalized AUC [1, 13]: 144 ng·kg·h/mL/mg
- concentration at 2 h [2, 4]: 183 ng/g
- concentration at 4 h [2, 5]: 45.9 ng/g
- concentration at 8 h [2, 6]: 50.5 ng/g
- concentration at 2 h [2, 7]: 380 ng/mL
- concentration at 4 h [2, 8]: 138 ng/mL
- concentration at 8 h [2, 9]: 33.7 ng/mL

Structure (SMILES): Cc1ncnc2c1ccn2[C@@H]1O[C@H]([C@H](O)c2ccc3c(c2)CC3)[C@@H](O)[C@H]1O [Example 11, (2R,3S,4R,5R)-2-((R)-bicyclo[4.2.0]octa-1(6),2,4-trien-3-yl(hydroxy)methyl)-5-(4-methyl-7H-pyrrolo[2,3-d]pyrimidin-7-yl)tetrahydrofuran-3,4-diol]
- IC50 (U-87 MG cells): 206 nM
- clearance ([1]; rat SD female, i.v. 1 mg/kg): 37.2 mL/min/kg
- half-life ([1]; rat SD female, i.v. 1 mg/kg): 1.84 h
- Vd ([1]; rat SD female, i.v. 1 mg/kg): 2.71 L/kg
- clearance ([1]; rat SD male, i.v. 1 mg/kg): 77.5 mL/min/kg
- half-life ([1]; rat SD male, i.v. 1 mg/kg): 1.06 h
- Vd ([1]; rat SD male, i.v. 1 mg/kg): 2.85 L/kg
- bioavailability ([1]; rat SD female, p.o. 3 mg/kg): 97%
- bioavailability ([1]; rat SD male, p.o. 3 mg/kg): 13%
- dose normalized AUC ([1]; rat SD female, p.o. 3 mg/kg): 434 ng·kg·h/mL/mg
- dose normalized AUC ([1]; rat SD male, p.o. 3 mg/kg): 33 ng·kg·h/mL/mg
- concentration at 1 h ([2]; brain, read-out: Brain-1 h): 188 ng/g
- concentration at 2 h ([2]; brain, read-out: Brain-2 h): 85.7 ng/g
- concentration at 4 h ([2]; brain, read-out: Brain-4 h): 50.2 ng/g
- concentration at 1 h ([2]; plasma, read-out: Plasma-1 h): 207 ng/mL
- concentration at 2 h ([2]; plasma, read-out: Plasma-2 h): 148 ng/mL
- concentration at 4 h ([2]; plasma, read-out: Plasma-4 h): 53.6 ng/mL
